We go through eight compounds from PubChem BioAssay (NCI).

“And” between values parts separate entries of the source, which are not always exact repeats. Equal values may be shown once.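 Assay format: 96-well plates, 48-hour exposure. At the GI50, growth is halved. Definition used: TGI = concentration required for complete inhibition of growth.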

Among the test systems are SK-MEL-28 melanoma; MALME-3M melanoma; U251 CNS; OVCAR-3 ovarian; MCF7 breast; SF-539 CNS; IGROV1 ovarian; TK-10 renal; MOLT-4 leukemia; OVCAR-5 ovarian.
Holding throughout (experiment): NCI-60 cell line screen, 48 h

For `COc1ccc(-c2nnc(SCC(=O)Nc3ccc(/C(C)=N\O)cc3)n2-c2ccccc2)cc1OC`, the GI50 with SK-MEL-28 melanoma is above 100 µM; with MALME-3M melanoma, 17.2 µM; in the assay with U251 CNS, 3.61 µM; in the assay on OVCAR-3 ovarian, 7.87 µM; with MCF7 breast, above 100 µM; with SF-539 CNS it was 4.77 µM. For the same compound, the GI50 is 3.74 µM in the assay with IGROV1 ovarian, 11.3 µM in the assay on TK-10 renal, above 100 µM in the assay on MOLT-4 leukemia and above 100 µM in the assay with OVCAR-5 ovarian. The TGI was above 100 µM in the assay with SK-MEL-28 melanoma; above 100 µM with MALME-3M melanoma; 19.6 µM in the assay on U251 CNS; above 100 µM with OVCAR-3 ovarian; above 100 µM in the assay with MCF7 breast; 38.9 µM in the assay with SF-539 CNS. Besides, the TGI with IGROV1 ovarian is 29.4 µM; with TK-10 renal, 52.7 µM; with MOLT-4 leukemia, above 100 µM; in the assay on OVCAR-5 ovarian it was above 100 µM.
Turning to `C=CCNCCCN1C(=O)c2ccc3c4c(ccc(c24)C1=O)C(=O)N(CCCNCC=C)C3=O`, the GI50 was 1.06 µM in the assay on SK-MEL-28 melanoma; 0.258 µM with MALME-3M melanoma; 0.269 µM in the assay on U251 CNS; 0.298 µM in the assay with OVCAR-3 ovarian; 0.157 µM in the assay with MCF7 breast; 0.584 µM in the assay with SF-539 CNS. Moreover, the GI50 in the assay with IGROV1 ovarian was 0.325 µM; in the assay on TK-10 renal, 0.551 µM; in the assay with MOLT-4 leukemia it was 0.335 µM; in the assay with OVCAR-5 ovarian, 0.596 µM. For the same compound, the TGI with SK-MEL-28 melanoma came to 2.6 µM; in the assay with MALME-3M melanoma, 0.617 µM; in the assay with U251 CNS, 1 µM; with OVCAR-3 ovarian it was 0.889 µM; in the assay on MCF7 breast it was 0.336 µM; with SF-539 CNS it was 2.41 µM. In addition, the TGI in the assay on IGROV1 ovarian turned out to be 1.2 µM; in the assay on TK-10 renal it was 6.14 µM; in the assay on MOLT-4 leukemia, 1.68 µM; with OVCAR-5 ovarian, 4.94 µM.
`COc1ccc(C/C(C)=C(\c2ccc(OCCN3CCOCC3)cc2)c2ccc(OC(=O)Cc3ccccc3)cc2)cc1`: the GI50 in the assay on SK-MEL-28 melanoma was 0.555 µM; with MALME-3M melanoma it was 0.531 µM; with U251 CNS, 0.501 µM; with OVCAR-3 ovarian it was 0.766 µM; with MCF7 breast, 0.574 µM; with SF-539 CNS, 0.513 µM. Besides, the GI50 in the assay on IGROV1 ovarian is 1.13 µM; in the assay with TK-10 renal, 0.778 µM; in the assay with MOLT-4 leukemia it was 0.593 µM; in the assay on OVCAR-5 ovarian, 0.951 µM. For the same compound, the TGI in the assay on SK-MEL-28 melanoma was found to be 1.06 µM; in the assay with MALME-3M melanoma, 1.03 µM; with U251 CNS, 0.965 µM; with OVCAR-3 ovarian, 1.66 µM; in the assay with MCF7 breast, 1.54 µM; in the assay on SF-539 CNS, 0.977 µM. In addition, the TGI was 5.03 µM with IGROV1 ovarian, 2.03 µM with TK-10 renal, 1.91 µM with MOLT-4 leukemia and 10.7 µM with OVCAR-5 ovarian.
Take `O=C1/C(=C/c2ccccc2F)CNC/C1=C\c1ccccc1F`: the GI50 is 2.02 µM and 1.79 µM in the assay on SK-MEL-28 melanoma; 2.26 µM and 1.83 µM in the assay on MALME-3M melanoma; 0.165 µM in the assay on U251 CNS; 0.89 µM and 0.309 µM in the assay on OVCAR-3 ovarian; 0.305 µM in the assay on MCF7 breast; 0.269 µM and 0.87 µM in the assay with SF-539 CNS. The GI50 in the assay with IGROV1 ovarian was 0.809 µM and 1.2 µM; in the assay on TK-10 renal it was 2.92 µM and 1.51 µM; with MOLT-4 leukemia, 0.425 µM and 0.738 µM; with OVCAR-5 ovarian it was 0.935 µM and 1.91 µM. Further, the TGI in the assay on SK-MEL-28 melanoma is 4.7 µM and 3.63 µM; in the assay on MALME-3M melanoma it was 6.38 µM and 4.51 µM; with U251 CNS, 0.362 µM and 0.372 µM; in the assay on OVCAR-3 ovarian it was 3.22 µM and 0.805 µM; in the assay on MCF7 breast, 1.39 µM; with SF-539 CNS, 0.828 µM and 2.99 µM. The TGI with IGROV1 ovarian was 2.49 µM and 3.19 µM; in the assay with TK-10 renal, 8.48 µM and 3.5 µM; with MOLT-4 leukemia it was 1.76 µM and 3.13 µM; in the assay on OVCAR-5 ovarian it was 2.34 µM and 3.96 µM.
With `COc1cc(C(O)c2nc3ccccc3s2)cc(OC)c1OC` (stereo not drawn), the GI50 was above 100 µM in the assay with SK-MEL-28 melanoma; 21.4 µM in the assay with MALME-3M melanoma; above 100 µM in the assay with U251 CNS; 88.9 µM in the assay on OVCAR-3 ovarian; 41.3 µM in the assay on MCF7 breast; above 100 µM in the assay with SF-539 CNS. Further, the GI50 in the assay on IGROV1 ovarian is 34.3 µM; in the assay on TK-10 renal it was 47.3 µM; in the assay on MOLT-4 leukemia it was 18.1 µM; in the assay with OVCAR-5 ovarian, above 100 µM. Besides, the TGI in the assay with SK-MEL-28 melanoma, in the assay with MALME-3M melanoma, with U251 CNS, in the assay on OVCAR-3 ovarian, in the assay on MCF7 breast and in the assay on SF-539 CNS was above 100 µM throughout. For the same compound, the TGI with IGROV1 ovarian, with TK-10 renal, with MOLT-4 leukemia and with OVCAR-5 ovarian was above 100 µM each time.
For `Nc1ncnc2c1ncn2CC(O)C(=O)O` (stereo not drawn), the TGI in the assay with SK-MEL-28 melanoma, with MALME-3M melanoma, in the assay with U251 CNS, in the assay with OVCAR-3 ovarian, with MCF7 breast and with SF-539 CNS was above 100 µM throughout. The TGI in the assay with IGROV1 ovarian, in the assay with TK-10 renal, in the assay with MOLT-4 leukemia and in the assay on OVCAR-5 ovarian was above 100 µM each time.
In the case of `CC(=O)Nc1ccccc1C=C1c2ccccc2-c2ccccc21`, the TGI in the assay with SK-MEL-28 melanoma was above 100 µM; in the assay with MALME-3M melanoma it was above 100 µM; in the assay with U251 CNS, 60.4 µM; in the assay on OVCAR-3 ovarian, 73 µM; in the assay with MCF7 breast, 50.3 µM; with SF-539 CNS, 26.5 µM. Also, the TGI with IGROV1 ovarian, in the assay on TK-10 renal, in the assay on MOLT-4 leukemia and in the assay with OVCAR-5 ovarian was above 100 µM each time.
Turning to `Cc1nn(-c2ccccc2)c2c1CC(=O)Nc1ccccc1-2`, the GI50 in the assay on SK-MEL-28 melanoma is 0.357 µM; in the assay with MALME-3M melanoma, 0.432 µM and 0.0872 µM; in the assay on U251 CNS, 0.282 µM; in the assay with OVCAR-3 ovarian it was 0.0805 µM; with MCF7 breast it was 0.0788 µM; in the assay with SF-539 CNS, 0.173 µM. For the same compound, the figures for the GI50 with IGROV1 ovarian and in the assay on MOLT-4 leukemia were 0.397 µM and 0.0843 µM, respectively. The TGI is above 100 µM in the assay with SK-MEL-28 melanoma; above 100 µM in the assay on MALME-3M melanoma; above 100 µM in the assay on U251 CNS; 2.92 µM and 0.552 µM in the assay with OVCAR-3 ovarian; above 100 µM in the assay with MCF7 breast; 7.8 µM and 0.855 µM in the assay on SF-539 CNS. Moreover, the TGI is above 100 µM in the assay on IGROV1 ovarian; 92.2 µM with TK-10 renal; 9.19 µM and 1.99 µM in the assay on MOLT-4 leukemia; above 100 µM with OVCAR-5 ovarian.
